Measured values as given in patent US20250282799A1, “SUBSTITUTED PYRIDO[4,3-d]PYRIMIDINES AS KRAS MODULATORS” (Alterome Therapeutics, Inc., priority 2023, published 2025).

System: KRAS G12V dependent lung adenocarcinoma cell line, NCI-H441
Test: Cellular pERK (Thr202/Tyr204) FRET/HTRF assay
Format: cell-based
Settings: NCI-H441 cells
Summary of the method: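 Using a mix-and-read HTRF kit, phospho-ERK (Thr202/Tyr204) was detected in NCI-H441 lysates following 1 hr compound incubation at 37 °C, 5% CO2. Cells had been seeded overnight beforehand, and IC50 was derived by curve fitting.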

[1] = cellular pERK (Thr202/Tyr204) HTRF
[2] = Homo sapiens, NCI-H441, cellular pERK (Thr202/Tyr204) HTRF

Row | SMILES | IC50 [1] [nM] | IC50 [2] [nM]
1 | [2H]C([2H])(Oc1nc(N2CCOC[C@H]3[C@H](F)[C@H]32)c2cc(Cl)c(-c3cc(N)cc4ccc(F)c(C#C)c34)c(F)c2n1)[C@@]12CCCN1C[C@H](F)C2 [Example 354, 4-(6-chloro-8-fluoro-4-((1S,7S,8S)-8-fluoro-5-oxa-2-azabicyclo[5.1.0]octan-2-yl)-2-(((2R,7aS)-2-fluorotetrahydro-1H-pyrrolizin-7a(5H)-yl)methoxy-d2)quinazolin-7-yl)-5-ethynyl-6-fluoronaphthalen-2-amine] | < 50 | 
2 | [2H]C([2H])(Oc1nc(N2CCOC[C@H]3[C@H](F)[C@H]32)c2cc(F)c(-c3cc(N)cc4ccc(F)c(C#C)c34)c(F)c2n1)[C@@]12CCCN1C[C@H](F)C2 [Example 355, 4-(6,8-difluoro-4-((1S,7S,8S)-8-fluoro-5-oxa-2-azabicyclo[5.1.0]octan-2-yl)-2-(((2R,7aS)-2-fluorotetrahydro-1H-pyrrolizin-7a(5H)-yl)methoxy-d2)quinazolin-7-yl)-5-ethynyl-6-fluoronaphthalen-2-amine] | < 50 | 
3 | C#Cc1c(F)ccc2cc(N)cc(-c3ncc4c(N5CCOC[C@H]6[C@H](F)[C@H]65)nc(OC[C@]56C/C(=C\F)CN5CCC65CC5)nc4c3F)c12 [Example 362, 5-Ethynyl-6-fluoro-4-(8-fluoro-4-((1S,7S,8S)-8-fluoro-5-oxa-2-azabicyclo[5.1.0]octan-2-yl)-2-(((R,E)-6′-(fluoromethylene)tetrahydrospiro[cyclopropane-1,1′-pyrrolizin]-7a′(5′H)-yl)methoxy)pyrido[4,3-d]pyrimidin-7-yl)naphthalen-2-amine] |  | < 50
4 | C#Cc1c(F)ccc2cc(N)cc(-c3ncc4c(N5CCOC[C@H]6[C@H](F)[C@H]65)nc(OC[C@]56C/C(=C/F)CN5CCC65CC5)nc4c3F)c12 [Example 363, 5-Ethynyl-6-fluoro-4-(8-fluoro-4-((1S,7S,8S)-8-fluoro-5-oxa-2-azabicyclo[5.1.0]octan-2-yl)-2-(((R,Z)-6′-(fluoromethylene)tetrahydrospiro[cyclopropane-1,1′-pyrrolizin]-7a′(5′H)-yl)methoxy)pyrido[4,3-d]pyrimidin-7-yl)naphthalen-2-amine] |  | < 50
5 | C#Cc1c(F)ccc2cc(N)cc(-c3ncc4c(N5CCOC[C@H]6[C@H](F)[C@H]65)nc(OC[C@]56C[C@@H](F)CN5CCC6=C)nc4c3F)c12 [Example 364, 5-ethynyl-6-fluoro-4-(8-fluoro-2-(((6R,7aR)-6-fluoro-1-methylenetetrahydro-1H-pyrrolizin-7a(5H)-yl)methoxy)-4-((1S,7S,8S)-8-fluoro-5-oxa-2-azabicyclo[5.1.0]octan-2-yl)pyrido[4,3-d]pyrimidin-7-yl)naphthalen-2-amine] |  | < 50
6 | [2H]C([2H])(Oc1nc(N2CCOC[C@H]3[C@H](Cl)[C@H]32)c2cnc(-c3cc(N)cc4ccc(C)c(C#C)c34)c(F)c2n1)[C@@]12CCCN1[C@H](C)[C@H](F)C2 [Example 366, 4-(4-((1S,7S,8S)-8-chloro-5-oxa-2-azabicyclo[5.1.0]octan-2-yl)-8-fluoro-2-(((2R,3R,7aS)-2-fluoro-3-methyltetrahydro-1H-pyrrolizin-7a(5H)-yl)methoxy-d2)pyrido[4,3-d]pyrimidin-7-yl)-5-ethynyl-6-methylnaphthalen-2-amine] |  | < 50
7 | C=C1CN2CCC[C@@]2(COc2nc(N3CCCC[C@H]4[C@H](F)[C@H]43)c3cnc(-c4cc(N)cc(Cl)c4C(F)(F)F)c(F)c3n2)C1 [Example 367, 3-chloro-5-(8-fluoro-4-((1S,7R,8S)-8-fluoro-2-azabicyclo[5.1.0]octan-2-yl)-2-(((S)-2-methylenetetrahydro-1H-pyrrolizin-7a(5H)-yl)methoxy)pyrido[4,3-d]pyrimidin-7-yl)-4-(trifluoromethyl)aniline] |  | < 50
8 | C=C1CN2CCC[C@@]2(COc2nc(N3CCCC[C@@H]4[C@@H](F)[C@@H]43)c3cnc(-c4cc(N)cc(Cl)c4C(F)(F)F)c(F)c3n2)C1 [Example 368, 3-chloro-5-(8-fluoro-4-((1R,7S,8R)-8-fluoro-2-azabicyclo[5.1.0]octan-2-yl)-2-(((S)-2-methylenetetrahydro-1H-pyrrolizin-7a(5H)-yl)methoxy)pyrido[4,3-d]pyrimidin-7-yl)-4-(trifluoromethyl)aniline] |  | 500 to 10000
9 | Nc1cc(Cl)c(C(F)(F)F)c(-c2ncc3c(N4CCCC[C@H]5[C@H](F)[C@H]54)nc(OC[C@@]45CCCN4CC(=C(F)F)C5)nc3c2F)c1 [Example 369, 3-chloro-5-(2-(((S)-2-(difluoromethylene)tetrahydro-1H-pyrrolizin-7a(5H)-yl)methoxy)-8-fluoro-4-((1S,7R,8S)-8-fluoro-2-azabicyclo[5.1.0]octan-2-yl)pyrido[4,3-d]pyrimidin-7-yl)-4-(trifluoromethyl)aniline] |  | 50 to 500
10 | Nc1cc(Cl)c(C(F)(F)F)c(-c2ncc3c(N4CCCC[C@@H]5[C@@H](F)[C@@H]54)nc(OC[C@@]45CCCN4CC(=C(F)F)C5)nc3c2F)c1 [Example 370, 3-chloro-5-(2-(((S)-2-(difluoromethylene)tetrahydro-1H-pyrrolizin-7a(5H)-yl)methoxy)-8-fluoro-4-((1R,7S,8R)-8-fluoro-2-azabicyclo[5.1.0]octan-2-yl)pyrido[4,3-d]pyrimidin-7-yl)-4-(trifluoromethyl)aniline] |  | 500 to 10000
11 | Nc1cc(Cl)c(C(F)(F)F)c(-c2ncc3c(N4CCCC[C@H]5[C@H](F)[C@H]54)nc(OC[C@@]45CCCN4C/C(=C/F)C5)nc3c2F)c1 [Example 371, 3-chloro-5-(8-fluoro-4-((1S,7R,8S)-8-fluoro-2-azabicyclo[5.1.0]octan-2-yl)-2-(((S,E)-2-(fluoromethylene)tetrahydro-1H-pyrrolizin-7a(5H)-yl)methoxy)pyrido[4,3-d]pyrimidin-7-yl)-4-(trifluoromethyl)aniline] |  | < 50
12 | Nc1cc(Cl)c(C(F)(F)F)c(-c2ncc3c(N4CCCC[C@@H]5[C@@H](F)[C@@H]54)nc(OC[C@@]45CCCN4C/C(=C/F)C5)nc3c2F)c1 [Example 372, 3-chloro-5-(8-fluoro-4-((1R,7S,8R)-8-fluoro-2-azabicyclo[5.1.0]octan-2-yl)-2-(((S,E)-2-(fluoromethylene)tetrahydro-1H-pyrrolizin-7a(5H)-yl)methoxy)pyrido[4,3-d]pyrimidin-7-yl)-4-(trifluoromethyl)aniline] |  | 500 to 10000
13 | Nc1cc(Cl)c(C(F)(F)F)c(-c2ncc3c(N4CCCC[C@H]5[C@H](F)[C@H]54)nc(OC[C@@]45CCCN4C/C(=C\F)C5)nc3c2F)c1 [Example 373, 3-chloro-5-(8-fluoro-4-((1S,7R,8S)-8-fluoro-2-azabicyclo[5.1.0]octan-2-yl)-2-(((S,Z)-2-(fluoromethylene)tetrahydro-1H-pyrrolizin-7a(5H)-yl)methoxy)pyrido[4,3-d]pyrimidin-7-yl)-4-(trifluoromethyl)aniline] |  | < 50
14 | Nc1cc(Cl)c(C(F)(F)F)c(-c2ncc3c(N4CCCC[C@@H]5[C@@H](F)[C@@H]54)nc(OC[C@@]45CCCN4C/C(=C\F)C5)nc3c2F)c1 [Example 374, 3-chloro-5-(8-fluoro-4-((1R,7S,8R)-8-fluoro-2-azabicyclo[5.1.0]octan-2-yl)-2-(((S,Z)-2-(fluoromethylene)tetrahydro-1H-pyrrolizin-7a(5H)-yl)methoxy)pyrido[4,3-d]pyrimidin-7-yl)-4-(trifluoromethyl)aniline] |  | 500 to 10000
15 | C#Cc1c(F)ccc2cccc(-c3ncc4c(N5CCOC[C@H]6[C@H](F)[C@H]65)nc(OC[C@]56C/C(=C\F)CN5CCC65CC5)nc4c3F)c12 [Example 375, (1S,7S,8S)-2-(7-(8-Ethynyl-7-fluoronaphthalen-1-yl)-8-fluoro-2-(((R,E)-6′-(fluoromethylene)tetrahydrospiro[cyclopropane-1,1′-pyrrolizin]-7a′(5′H)-yl)methoxy)pyrido[4,3-d]pyrimidin-4-yl)-8-fluoro-5-oxa-2-azabicyclo[5.1.0]octane] |  | < 50
16 | C#Cc1c(F)ccc2cccc(-c3ncc4c(N5CCOC[C@H]6[C@H](F)[C@H]65)nc(OC[C@]56C/C(=C/F)CN5CCC65CC5)nc4c3F)c12 [Example 376, (1S,7S,8S)-2-(7-(8-Ethynyl-7-fluoronaphthalen-1-yl)-8-fluoro-2-(((R,Z)-6′-(fluoromethylene)tetrahydrospiro[cyclopropane-1,1′-pyrrolizin]-7a′(5′H)-yl)methoxy)pyrido[4,3-d]pyrimidin-4-yl)-8-fluoro-5-oxa-2-azabicyclo[5.1.0]octane] |  | < 50
17 | C#Cc1c(F)ccc2cccc(-c3ncc4c(N5CCCC[C@H]6[C@H](F)[C@H]65)nc(OC[C@]56C/C(=C\F)CN5CCC65CC5)nc4c3F)c12 [Example 377, (R,E)-7a′-(((7-(8-ethynyl-7-fluoronaphthalen-1-yl)-8-fluoro-4-((1S,7R,8S)-8-fluoro-2-azabicyclo[5.1.0]octan-2-yl)pyrido[4,3-d]pyrimidin-2-yl)oxy)methyl)-6′-(fluoromethylene)hexahydrospiro[cyclopropane-1,1′-pyrrolizine]] |  | < 50
18 | Nc1cc(Cl)c(C(F)(F)F)c(-c2ncc3c(N4CCCC[C@H]5[C@H](F)[C@H]54)nc(OC[C@]45C/C(=C\F)CN4CCC54CC4)nc3c2F)c1 [Example 378, 3-chloro-5-(8-fluoro-4-((1S,7R,8S)-8-fluoro-2-azabicyclo[5.1.0]octan-2-yl)-2-(((R,E)-6′-(fluoromethylene)tetrahydrospiro[cyclopropane-1,1′-pyrrolizin]-7a′(5′H)-yl)methoxy)pyrido[4,3-d]pyrimidin-7-yl)-4-(trifluoromethyl)aniline] |  | 50 to 500
